Reference: US9206129B2, “Agent for treatment of eye diseases” (Daito Chemix Corporation, priority 2010, dated 2015)
Where a name gives a salt, the structure may show the parent alone.

Assays:
DBA/2J mice = assay: Intraocular pressure in DBA/2J mice (TonoLab tonometer); assay type: in vivo, mouse; settings: 50 mg/kg/day orally
Method: As a model of secondary angle-closure glaucoma, the DBA/2J mice (Anderson, M. G. et al; BMC Genetics (2001)) were employed. The mice were administered orally with 50 mg/kg/day of the compound of Synthetic Example 32 or 53 (Compound 32 or 53, respectively) daily after two months of age. The tomographs of retinae (n=22 to 32 eyes) were obtained in the 6, 7, 8, 9 and 10-month-old mice with the optical coherence tomography (OCT) (Multiline OCT, Heidelberg Engineering) (FIGS. 1 and 2: The OCT images of the retinae of the 8-month-old mice, FIG. 3: The evaluation of the optic nerve cupping in the 7 to 10-month-old mice). The mice in the control group were administered orally with the physiological saline. The eyeballs were enucleated at 10 months of age, and retinae were observed after hematoxylin-eosin (HE) staining (FIG. 4: The micrographs of retinae of the […] mice after HE staining). The thickness of the inner retinal layers and the nerve fiber layers was determined from the OCT images (FIG. 5: The thickness of the nerve fiber layers of the 7-month-old mice; FIG. 6: The thickness of the inner retinal layers of the 8-month-old mice; FIG. 7: The time course of the thickness of the inner retinal layers). The thickness of the inner retinal layer is a sum of the thickness of the nerve fiber and ganglion neuron layer and the inner plexiform layer.
Besides, the intraocular pressure was measured with TonoLab (M. E. Technica) tonometer under general anesthesia monthly from 2 months of age. The mean intraocular pressure at 4, 5, 6, 7 and 8 months of age was 13.6, 14.0, 11.3, 16.3 and 12.8 mmHg in the control group administered with the physiological saline, 13.0, 15.6, 12.0, 12.3 and 14.4 mmHg in the group administered with Compound 32, 14.6, 16.0, 12.8, 13.0 and 14.4 mmHg in the group administered with Compound 53.

rd10 mice = assay: rd10 mice, model of retinitis pigmentosa: OCT, electroretinogram, HE-stained retinae; assay type: in vivo, mouse; settings: 33-day-old rd10 mice, 50 mg/kg/day intraperitoneally
Method: As a model of retinitis pigmentosa, the rd10 mice (B6.CXB1-Pde6b^rd10/J (purchased from Jackson Laboratory (Bar Harbor, Me.), Chang B. et al; Vision Res (2007)) were employed. In the mouse model, the rod photoreceptors are completely disappeared within 2 months after birth. The mice were administered intraperitoneally with 50 mg/kg/day of the compound of Synthetic Example 32 or 53 (Compound 32 or 53, respectively) daily from 7 days of age. The tomographs of the retinae were obtained in the 21, 25, 29 and 33-day-old mice with the optical coherence tomography (OCT) (FIGS. 15 and 17: The OCT images of the mice administered with Compound 32 at 25 and 29 days of age; FIGS. 19 and 21: The OCT images of the mice administered with Compound 53 at 25 and 29 days of age). The 21-, 25-, 29- and 33-day-old mice were subjected to dark adaptation and given 3.0 cd/s/m^2 of photic stimulations via a LED-type corneal-contact electrode (Mayo) by LS-W (Mayo). The electroretinogram (ERG) was recorded and analyzed with PowerLab 2/25 (AD Instruments, New South Wales, Australia) to measure the b-wave amplitudes (N=27-37 eyes) (FIGS. 16, 18, 24: The ERG of the 25-, 29- and 33-day-old mice administered with Compound 32; FIGS. 20, 22, 26: The ERG of the 25-, 29- and 33-day-old mice administered with Compound 53). The mice in the control group were administered orally with the physiological saline. […]

Mouse VCP = Mouse VCP (Mus musculus (Mouse), UniProt Q01853); assay: VCP ATPase inhibitory activity; assay type: biochemical; settings: ATPase activity of purified VCP, 100 μM [γ-32P]ATP, 37° C., 10 minutes
Method: Mouse VCP cDNA (the amino acid sequence is completely identical among mouse, rat and human) is added with a DNA sequence corresponding to a histidine tag at the amino-terminal, subcloned into a baculovirus vector pVL1392 (BD Bioscience), and expressed in Sf-9 insect cells. The protein is purified with a nickel column. After the purification the concentration of the protein is adjusted to […] and the protein is stored in a solution containing 50 mM TrisCl pH 8.0, 5 mM EDTA, 10% glycerol, and 15 mM DTT at 4° C. […] The enzyme reaction is stopped with addition of 200 μL of an ice-cold solution containing 7% TCA and 1 mM K2HPO4. […] The reaction tube is centrifuged for 5 minutes at 20,000 g to separate the aqueous layer and the organic layer, 200 μL of the organic layer is taken, and the beta ray radiated from the liberated phosphate is quantified with liquid scintillation counter. By measuring the ATPase activity in the presence of the test substance at various concentrations, ATPase inhibitory activity of the test substance is measured. […]
The ATPase activity was determined as follows. […]
By measuring the ATPase activity in the presence of the test substance at various concentrations, ATPase inhibitory activity of the test substance was measured. […]

Chain of Mouse VCP (Q01853 whole entry): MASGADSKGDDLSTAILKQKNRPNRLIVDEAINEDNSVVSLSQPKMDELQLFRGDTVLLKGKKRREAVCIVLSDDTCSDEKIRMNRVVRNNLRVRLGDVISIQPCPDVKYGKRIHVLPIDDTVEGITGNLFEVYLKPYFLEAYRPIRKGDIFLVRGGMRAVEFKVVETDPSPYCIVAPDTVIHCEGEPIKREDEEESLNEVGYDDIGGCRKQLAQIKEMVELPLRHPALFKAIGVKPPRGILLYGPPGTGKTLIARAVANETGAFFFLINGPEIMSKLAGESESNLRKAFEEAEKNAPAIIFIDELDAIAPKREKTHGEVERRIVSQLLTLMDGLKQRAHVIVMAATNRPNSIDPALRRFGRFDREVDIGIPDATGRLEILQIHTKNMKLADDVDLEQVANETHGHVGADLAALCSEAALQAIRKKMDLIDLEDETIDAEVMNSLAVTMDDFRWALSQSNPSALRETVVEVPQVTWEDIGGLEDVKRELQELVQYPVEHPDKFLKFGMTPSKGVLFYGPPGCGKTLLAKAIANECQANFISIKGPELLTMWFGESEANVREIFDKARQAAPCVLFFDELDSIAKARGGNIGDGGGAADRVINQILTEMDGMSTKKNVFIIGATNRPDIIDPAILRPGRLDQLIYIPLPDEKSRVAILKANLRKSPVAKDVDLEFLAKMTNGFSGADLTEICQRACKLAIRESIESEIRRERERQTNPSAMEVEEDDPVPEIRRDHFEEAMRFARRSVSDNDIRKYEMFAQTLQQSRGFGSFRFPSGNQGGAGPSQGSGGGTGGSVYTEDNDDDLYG

Work on CCCCOc1c(C=O)cc(C)cc1-c1ccc(/N=N/c2cc(S(=O)(=O)[O-])c3ccccc3c2N)cn1.[Na+] [Example 53, 4-amino-3-[6-(3-formyl-2-butoxy-5-methylphenyl)pyridine-3-ylazo]naphthalene-1-sulfonic acid sodium salt] yielded a mean intraocular pressure (DBA/2J mice; 4 months of age) of 14.6 mmHg, a mean intraocular pressure (DBA/2J mice; 5 months of age) of 16.0 mmHg and a mean intraocular pressure (DBA/2J mice; 6 months of age) of 12.8 mmHg. For the same compound, the mean intraocular pressure (DBA/2J mice; 7 months of age) was 13.0 mmHg, the mean intraocular pressure (DBA/2J mice; 8 months of age) was 14.4 mmHg and the “layers of the photoreceptor cells in the retinal section” value (rd10 mice) was 4 to 5 layers.
Nc1c(/N=N/c2ccc(-c3ccccc3OCCCC(=O)O)nc2)cc(S(=O)(=O)O)c2ccccc12 [Example 43, 4-{2-[5-(1-amino-4-sulfonaphthalene-2-ylazo)pyridine-2-yl]phenoxy}butyric acid disodium salt] was tested, and the IC50 (Mouse VCP) was 378 nM.
Cc1cc(F)ccc1-c1ccc(/N=N/c2cc(S(=O)(=O)[O-])c3ccccc3c2N)cn1.[Na+] [Example 32, 4-amino-3-[6-(4-fluoro-2-methylphenyl)pyridine-3-ylazo]naphthalene-1-sulfonic acid sodium salt] was tested, and the mean intraocular pressure (DBA/2J mice; 4 months of age) was 13.0 mmHg, the mean intraocular pressure (DBA/2J mice; 5 months of age) was 15.6 mmHg and the mean intraocular pressure (DBA/2J mice; 6 months of age) was 12.0 mmHg. The mean intraocular pressure (DBA/2J mice; 7 months of age) was 12.3 mmHg, the mean intraocular pressure (DBA/2J mice; 8 months of age) was 14.4 mmHg and the “layers of the photoreceptor cells in the retinal section” value (rd10 mice) was 4 to 5 layers.
